# Results as given in article PMC4462585, “Synthesis and Biological Evaluation of 3-Alkyl-1,5-Diaryl-1H-Pyrazoles as Rigid Analogues of Combretastatin A-4 with Potent Antiproliferative Activity” (PLoS ONE, 2015).
# Legend:
# [1] = test system: three human cancer cell lines (SGC-7901, A549 and HT-1080); test: MTT antiproliferative assay, three human cancer cell lines; type: cell-based; details: HT-1080, SGC-7901, A549, 72 h, read-out: Antiproliferative IC50 values, range over the three cancer cell lines
# Text: (§1) Pulmonary adenocarcinoma cell lines (A549) and gastric adenocarcinoma cell lines (SGC-7901) were provided as gifts (purchased from the Cell Resource Center of Shanghai Institutes for Biological Sciences) from the China-Japan Research Institute of Medical and Pharmaceutical Sciences, Shenyang Pharmaceutical University. Fibrosarcoma cell lines (HT-1080) were purchased from the Cell Resource Center of Shanghai Institutes for Biological Sciences. All cells were maintained in DMEM containing 1% antibiotics (100 units of penicillin and […] per mL in 0.9% normal saline) and 10% foetal bovine serum in a humidified atmosphere containing 5% CO2 at 37°C.
# Antiproliferative activities of CA-4 and the target compounds were measured using a colourimetric assay using 3-(4,5-dimethylthiazol-2yl-)-2,5-diphenyltetrazolium bromide (MTT). Approximately 3 × 10^4 cells were seeded in a 96-well plate. After 24 h of incubation at 37°C, cells were exposed to compounds of differing concentrations (0.0008 μg/mL, 0.004 μg/mL, 0.02 μg/mL, 0.10 μg/mL, 0.50 μg/mL, 2.5 μg/mL, 12.5 μg/mL, 62.5 μg/mL) for 72 h. […] The colour density was measured spectrophotometrically at 490 nm using a microplate reader (SpectraMax Plus384, Molecular Devices Corp., USA). The percentage of cell growth inhibition was calculated as follow: inhibition ratio % = (Acontrol—Atreated) / Acontrol × 100%. […]
# [2] = test system: pulmonary adenocarcinoma cell line A549; test: MTT antiproliferative assay, A549; type: cell-based; details: Homo sapiens, 72 h drug exposure, triplicate, read-out: Antiproliferative activity (IC50 ± SD) A549
# Text: as §1
# (§2) Antiproliferative activities of CA-4 and the target compounds were measured using a colourimetric assay using 3-(4,5-dimethylthiazol-2yl-)-2,5-diphenyltetrazolium bromide (MTT). Approximately 3 × 10^4 cells were seeded in a 96-well plate. After 24 h of incubation at 37°C, cells were exposed to compounds of differing concentrations (0.0008 μg/mL, 0.004 μg/mL, 0.02 μg/mL, 0.10 μg/mL, 0.50 μg/mL, 2.5 μg/mL, 12.5 μg/mL, 62.5 μg/mL) for 72 h. After treatment, cells were washed with 1X PBS followed by addition of 100 μL of 0.05% MTT reagent to each well, followed by incubation for 4 h at 37°C. After incubation, the supernatant from each well was carefully removed and the formazan crystals were dissolved in 100 μL of DMSO. The colour density was measured spectrophotometrically at 490 nm using a microplate reader (SpectraMax Plus384, Molecular Devices Corp., USA). The percentage of cell growth inhibition was calculated as follow: inhibition ratio % = (Acontrol—Atreated) / Acontrol × 100%. The 50% inhibitory concentration (IC50) was defined as the concentration that reduced the absorbance of the untreated wells by 50% of the vehicle in the MTT assay.
# purified bovine tubulin = test: Tubulin assembly (polymerization) assay, cell-free, fluorescence-based; type: biochemical; details: 37°C, IC50 calculated at 80 min, three experiments, read-out: Inhibition of tubulin polymerization IC50
# Protocol: Fig 5 Dose-response effects of CA-4 (1), 7i and 7k on the inhibition of tubulin polymerization. Purified bovine tubulin and GTP were mixed in a 96-well plate. The reaction was initiated by warming the solution from 4°C to 37°C. DMSO was used as a vehicle control. The effect on the assembly of tubulin was monitored using a plate reader at 1 min intervals for 90 min at 37°C.
# The effect of compounds 7i and 7k on the polymerization of purified brain tubulin was determined employing a fluorescence-based tubulin polymerization assay kit (Cat. #BK011P, Cytoskeleton, Inc., USA) according to the manufacturer’s protocol. Tubulin was re-suspended in ice-cold G-PEM buffer (80 mM PIPES, 2 mM MgCl2, 0.5 mM EGTA, 1 mM GTP, 20% (v/v) glycerol) and added to wells on a 96-well plate containing the designated concentration of drugs or vehicle. Samples were mixed well, and tubulin assembly was monitored (emission wavelength: 450 nm; excitation wavelength: 360 nm) at 1 min intervals for 90 min at 37°C using a plate reader ([…]). IC50 values were calculated at 80 min using SPSS software in three experiments.
# [3] = test system: microtubule network in HT-1080 cells; test: Immunostaining of tubulin assembly in HT-1080 cells; type: cell-based, human; details: 2-fold IC50 concentration (7k 0.18 μM), 48 h
# Protocol: Microtubules were labelled using the indirect immuno-fluorescence method and were analysed by fluorescence microscopy. […] HT-1080 cells were treated with 7k (0.18 μM) for 48 h (scale bar = 10 μm). The left, middle and right panels represent tubulin assembly stained with FITC, DAPI and a merge of the corresponding left and middle panels, respectively. Images were taken using a confocal microscope. Immunostaining was performed to detect microtubule-associated tubulin protein after exposure to CA-4 and compound 7k. The SGC-7901 and HT-1080 cells were seeded at a density of 1 × 10^4 per well on a 24-well plate and grown for 24 h. […] The control and treated cells were fixed in acetone:methanol (1:1) for 30 min at -20°C, washed with 1X PBS, incubated for 30 min in 1X PBS containing 2% BSA, and then 0.1% Triton X-100. The primary tubulin antibody (Cell Signaling Technology, MA, USA) was diluted (1:100) with 2% BSA in 1X PBS and incubated overnight at 4°C. The cells were washed with 1X PBS to remove unbound primary antibody, and then cells were incubated for 3 h at 37°C with FITC-conjugated anti-mouse secondary antibody diluted 1:1000 with 2% BSA in PBS.
# [4] = test system: microtubule network in SGC-7901 cells; test: Immunostaining of tubulin assembly in SGC-7901 cells; type: cell-based, human; details: 2-fold IC50 concentration (7k 0.14 μM), 48 h
# Protocol: Microtubules were labelled using the indirect immuno-fluorescence method and were analysed by fluorescence microscopy. […] SGC-7901 cells were treated with 7k (0.14 μM) for 48 h (scale bar = 10 μm). The left, middle and right panels represent the tubulin assembly stained with FITC, DAPI and a merge of the corresponding left and middle panels, respectively. Images were taken using a confocal microscope. Immunostaining was performed to detect microtubule-associated tubulin protein after exposure to CA-4 and compound 7k. The SGC-7901 and HT-1080 cells were seeded at a density of 1 × 10^4 per well on a 24-well plate and grown for 24 h. […] The control and treated cells were fixed in acetone:methanol (1:1) for 30 min at -20°C, washed with 1X PBS, incubated for 30 min in 1X PBS containing 2% BSA, and then 0.1% Triton X-100. The primary tubulin antibody (Cell Signaling Technology, MA, USA) was diluted (1:100) with 2% BSA in 1X PBS and incubated overnight at 4°C. The cells were washed with 1X PBS to remove unbound primary antibody, and then cells were incubated for 3 h at 37°C with FITC-conjugated anti-mouse secondary antibody diluted 1:1000 with 2% BSA in PBS.
# [5] = test system: fibrosarcoma cell line HT-1080; test: MTT antiproliferative assay, HT-1080; type: cell-based; details: Homo sapiens, 72 h drug exposure, triplicate, read-out: Antiproliferative activity (IC50 ± SD) HT-1080
# Text: as §1, §2
# [6] = test system: gastric adenocarcinoma cell line SGC-7901; test: MTT antiproliferative assay, SGC-7901; type: cell-based; details: Homo sapiens, 72 h drug exposure, triplicate, read-out: Antiproliferative activity (IC50 ± SD) SGC-7901
# Text: as §1, §2
IC50 [2] [nM],IC50 (purified bovine tubulin) [nM],IC50 [5] [nM],IC50 [6] [nM],melting point [°C],SMILES,IC50 [1] [nM],"Effect on microtubule network (immunofluorescence), HT-1080 [3]","Effect on microtubule network (immunofluorescence), SGC-7901 [4]"
96 ± 11,1700,122 ± 13,76 ± 9,129 to 130,"COc1ccc(-c2cc(C)nn2-c2cc(OC)c(OC)c(OC)c2)cc1N [Compound 7k, 3-Methyl-5-(3-amino-4-methoxyphenyl)-1-(3,4,5-trimethoxyphenyl)-1H-pyrazole]",76 to 120,disruption of the tubulin network,disruption of the tubulin network
1120 ± 120,2500,930 ± 130,275 ± 20,130 to 131,"COc1ccc(-c2cc(C)nn2-c2cc(OC)c(OC)c(OC)c2)cc1O [Compound 7i, 3-Methyl-5-(3-hydroxy-4-methoxyphenyl)-1-(3,4,5-trimethoxyphenyl)-1H-pyrazole]",,,
2840 ± 520,,5520 ± 260,3050 ± 330,86 to 87,"COc1ccc(-c2cc(C)nn2-c2cc(OC)c(OC)c(OC)c2)cc1F [Compound 7e, 3-Methyl-5-(3-fluoro-4-methoxyphenyl)-1-(3,4,5-trimethoxyphenyl)-1H-pyrazole]",,,
79100 ± 2000,,15900 ± 3200,14300 ± 3100,128 to 129,"COc1ccc(-c2c(Br)c(C)nn2-c2cc(OC)c(OC)c(OC)c2)cc1N [Compound 7o, 4-Bromo-3-methyl-5-(3-amino-4-methoxyphenyl)-1-(3,4,5-trimethoxyphenyl)-1H-pyrazole]",,,
9040 ± 250,,7110 ± 230,8420 ± 320,166 to 167,"COc1ccc(-c2c(CO)c(C)nn2-c2cc(OC)c(OC)c(OC)c2)cc1O [Compound 7m, 4-Hydroxymethyl-3-methyl-5-(3-hydroxy-4-methoxy-phenyl)-1-(3,4,5-trimethoxyphenyl)-1H-pyrazole]",,,

SMILES,IC50 [2] [nM],IC50 (purified bovine tubulin) [nM],IC50 [5] [nM],IC50 [6] [nM],melting point [°C],IC50 [1] [nM],"Effect on microtubule network (immunofluorescence), HT-1080 [3]","Effect on microtubule network (immunofluorescence), SGC-7901 [4]"
"COc1ccc(/C=C\c2cc(OC)c(OC)c(OC)c2)cc1O [Compound 1, Combretastatin A-4]",35 ± 9,900,23 ± 12,16 ± 10,,16 to 35,disruption of the tubulin network,disruption of the tubulin network
